Source: patent US8252832B2, “Kinesin inhibitors as cancer therapeutics” (Novartis AG, priority 2007, dated 2012)
Where two headings read alike, the source gives them in different places.

System: panel of cell lines and tumor explants
Test: Soft agar (clonogenic) assay on cell lines and tumor explants
Assay type: cell-based, human
Parameters: key to Differential: panel average log(GI50) minus sample log(GI50); positive = more sensitive
Details: for GI50: Homo sapiens; for Differential: average log(GI50) 0.236 minus log(GI50)
Experimental: Compound IIa was tested against a panel of cell lines and tumor explants in a soft agar assay as described in Fiebig, H. H., Maier, A., and Burger, A. M. (Clonogenic assay with established human tumour xenorafts: correlation of in vitro to in vivo activity as a basis for anticancer drug discovery, Eur. J. Cancer 40, 802-820 (2004).) Table 16 lists the type of cancer, the name of the sample, its GI50 (concentration needed to achieve 50% growth inhibition) value in the assay, the logarithm of the GI50 (log(GI50), and the relative sensitivity of each sample (Differential). The differential is calculated by subtracting the log(GI50) for each cell line from the average log(GI50) across the entire panel (0.236 in this case); a positive value indicates a sample that is more sensitive than average, whereas a negative value indicates a sample that is less sensitive than average.

In the case of CC(C)(C)[C@H](c1nc(-c2cc(F)ccc2F)cn1Cc1ccccc1)N(CC[C@H](N)CF)C(=O)CO [Compound IIa], the GI50 (MOLT-4, Leukemia (ALL), sample MOLT4, read-out: GI50) is reported as 0.877 nM, the GI50 (Mean across the entire panel, read-out: GI50) is reported as 1.72 nM and the GI50 (Melanoma, sample 462, GI50 in nM, read-out: log(GI50) (converted)) is reported as ≥ 10 nM. For the same compound, the GI50 (Melanoma, sample 462, read-out: GI50) was 10 nM, the GI50 (Melanoma, sample 989, GI50 in nM, read-out: log(GI50) (converted)) was 12.7 nM and the GI50 (Melanoma, sample 989, read-out: GI50) was 12.7 nM. The GI50 (Melanoma, sample 1341, GI50 in nM, read-out: log(GI50) (converted)) was ≥ 10 nM, the GI50 (Melanoma, sample 1341, read-out: GI50) was 10 nM and the GI50 (NSCLC, sample 211, GI50 in nM, read-out: log(GI50) (converted)) was 0.216 nM. The GI50 (NSCLC, sample 211, read-out: GI50) was 0.216 nM, the GI50 (NSCLC, sample 289, GI50 in nM, read-out: log(GI50) (converted)) was 4.9 nM and the GI50 (NSCLC, sample 289, read-out: GI50) was 4.9 nM. The GI50 (NSCLC, sample 526, GI50 in nM, read-out: log(GI50) (converted)) was 1.26 nM, the GI50 (NSCLC, sample 526, read-out: GI50) was 1.26 nM and the GI50 (NSCLC, sample 629, GI50 in nM, read-out: log(GI50) (converted)) was ≥ 10 nM. It also gave a GI50 (NSCLC, sample 629, read-out: GI50) of 10 nM, a GI50 (NSCLC, sample 677, GI50 in nM, read-out: log(GI50) (converted)) of 1.16 nM and a GI50 (NSCLC, sample 677, read-out: GI50) of 1.16 nM. The GI50 (NSCLC, sample 737, GI50 in nM, read-out: log(GI50) (converted)) was 3.07 nM, the GI50 (NSCLC, sample 737, read-out: GI50) was 3.07 nM and the GI50 (NSCLC, sample 1012, GI50 in nM, read-out: log(GI50) (converted)) was 0.927 nM. The GI50 (NSCLC, sample 1012, read-out: GI50) was 0.926 nM, the GI50 (NSCLC, sample 1176, GI50 in nM, read-out: log(GI50) (converted)) was 3 nM and the GI50 (NSCLC, sample 1176, read-out: GI50) was 3 nM. For the same compound, the GI50 (NSCLC, sample 1422, GI50 in nM, read-out: log(GI50) (converted)) was 0.728 nM, the GI50 (NSCLC, sample 1422, read-out: GI50) was 0.728 nM and the GI50 (NSCLC, sample 1647, GI50 in nM, read-out: log(GI50) (converted)) was 16.7 nM. For the same compound, the GI50 (NSCLC, sample 1647, read-out: GI50) was 16.8 nM, the GI50 (Ovarian, sample 899, GI50 in nM, read-out: log(GI50) (converted)) was ≥ 10 nM and the GI50 (Ovarian, sample 899, read-out: GI50) was 10 nM. The GI50 (Ovarian, sample 1353, GI50 in nM, read-out: log(GI50) (converted)) was ≥ 10 nM, the GI50 (Ovarian, sample 1353, read-out: GI50) was 10 nM and the GI50 (PC-3M, Prostate, sample PC3M, GI50 in nM, read-out: log(GI50) (converted)) was 0.424 nM. It also gave a GI50 (PC-3M, Prostate, sample PC3M, read-out: GI50) of 0.424 nM, a GI50 (Pancreas, sample 546, GI50 in nM, read-out: log(GI50) (converted)) of 2.59 nM and a GI50 (Pancreas, sample 546, read-out: GI50) of 2.59 nM. The GI50 (Pancreas, sample 736, GI50 in nM, read-out: log(GI50) (converted)) was 1.26 nM, the GI50 (Pancreas, sample 736, read-out: GI50) was 1.26 nM and the GI50 (Pancreas, sample 1657, GI50 in nM, read-out: log(GI50) (converted)) was 27 nM. It also gave a GI50 (Pancreas, sample 1657, read-out: GI50) of 27 nM, a GI50 (Pancreas, sample 1861, GI50 in nM, read-out: log(GI50) (converted)) of 0.622 nM and a GI50 (Pancreas, sample 1861, read-out: GI50) of 0.623 nM. For the same compound, the GI50 (Pancreas, sample 1869, GI50 in nM, read-out: log(GI50) (converted)) was 10.9 nM, the GI50 (Pancreas, sample 1869, read-out: GI50) was 10.9 nM and the GI50 (Pancreas, sample 1872, GI50 in nM, read-out: log(GI50) (converted)) was 0.282 nM. The GI50 (Pancreas, sample 1872, read-out: GI50) was 0.282 nM, the GI50 (Pancreas, sample 1876, GI50 in nM, read-out: log(GI50) (converted)) was 0.337 nM and the GI50 (Pancreas, sample 1876, read-out: GI50) was 0.337 nM. The GI50 (Pancreas, sample 1881, GI50 in nM, read-out: log(GI50) (converted)) was 2.32 nM, the GI50 (Pancreas, sample 1881, read-out: GI50) was 2.32 nM and the GI50 (Pancreas, sample 1887, GI50 in nM, read-out: log(GI50) (converted)) was ≥ 10 nM. The GI50 (Pancreas, sample 1887, read-out: GI50) was 10 nM, the GI50 (Pancreas, sample 1900, GI50 in nM, read-out: log(GI50) (converted)) was 16.9 nM and the GI50 (Pancreas, sample 1900, read-out: GI50) was 16.9 nM. The GI50 (Pancreas, sample 1912, GI50 in nM, read-out: log(GI50) (converted)) was 0.112 nM, the GI50 (Pancreas, sample 1912, read-out: GI50) was 0.112 nM and the GI50 (Pancreas, sample 1937, GI50 in nM, read-out: log(GI50) (converted)) was 0.185 nM. For the same compound, the GI50 (Pancreas, sample 1937, read-out: GI50) was 0.185 nM, the GI50 (Prostate, sample MRIH1579, GI50 in nM, read-out: log(GI50) (converted)) was ≥ 10 nM and the GI50 (Prostate, sample MRIH1579, read-out: GI50) was 10 nM. The GI50 (SCLC, sample 538, GI50 in nM, read-out: log(GI50) (converted)) was 0.339 nM, the GI50 (SCLC, sample 538, read-out: GI50) was 0.339 nM and the GI50 (SCLC, sample 573, GI50 in nM, read-out: log(GI50) (converted)) was 0.587 nM. It also gave a GI50 (SCLC, sample 573, read-out: GI50) of 0.587 nM, a GI50 (SCLC, sample 615, GI50 in nM, read-out: log(GI50) (converted)) of 0.082 nM and a GI50 (SCLC, sample 615, read-out: GI50) of 0.082 nM. It also gave a GI50 (SCLC, sample 650, GI50 in nM, read-out: log(GI50) (converted)) of 0.376 nM, a GI50 (SCLC, sample 650, read-out: GI50) of 0.376 nM and a GI50 (SCLC, sample H69, GI50 in nM, read-out: log(GI50) (converted)) of 0.269 nM. The GI50 (SCLC, sample H69, read-out: GI50) was 0.269 nM, the GI50 (Sarcoma, sample 117, GI50 in nM, read-out: log(GI50) (converted)) was 0.249 nM and the GI50 (Sarcoma, sample 117, read-out: GI50) was 0.249 nM. It also gave a GI50 (Sarcoma, sample 417, GI50 in nM, read-out: log(GI50) (converted)) of 0.16 nM, a GI50 (Sarcoma, sample 417, read-out: GI50) of 0.16 nM and a GI50 (Sarcoma, sample 463, GI50 in nM, read-out: log(GI50) (converted)) of 19.1 nM. The GI50 (Sarcoma, sample 463, read-out: GI50) was 19.1 nM, the GI50 (Sarcoma, sample 627, GI50 in nM, read-out: log(GI50) (converted)) was ≥ 10 nM and the GI50 (Sarcoma, sample 627, read-out: GI50) was 10 nM. It also gave a GI50 (Sarcoma, sample 1186, GI50 in nM, read-out: log(GI50) (converted)) of 0.327 nM, a GI50 (Sarcoma, sample 1186, read-out: GI50) of 0.327 nM and a GI50 (Sarcoma, sample 1301, GI50 in nM, read-out: log(GI50) (converted)) of 0.235 nM. For the same compound, the GI50 (Sarcoma, sample 1301, read-out: GI50) was 0.235 nM, the GI50 (Sarcoma, sample 1410, GI50 in nM, read-out: log(GI50) (converted)) was 2.24 nM and the GI50 (Sarcoma, sample 1410, read-out: GI50) was 2.25 nM. The GI50 (U-937, Lymphoma (NHL), sample U937, GI50 in nM, read-out: log(GI50) (converted)) was 0.0859 nM, the GI50 (U-937, Lymphoma (NHL), sample U937, read-out: GI50) was 0.086 nM and the Differential (Leukemia (ALL), sample CCRFCEM) was 0.779. The Differential (Leukemia (ALL), sample JURKAT) was 1.211, the Differential (Leukemia (ALL), sample MOLT4) was 0.293 and the Differential (Leukemia (CML), sample K562) was 0.805. The Differential (Lymphoma (NHL), sample U937) was 1.302, the “log(GI50)” value (Mean across the entire panel, GI50 in nM) was 0.236 and the Differential (Melanoma, sample 462) was −0.764. It also gave a Differential (Melanoma, sample 989) of −0.868, a Differential (Melanoma, sample 1341) of −0.764 and a Differential (NSCLC, sample 211) of 0.902. For the same compound, the Differential (NSCLC, sample 289) was −0.454, the Differential (NSCLC, sample 526) was 0.134 and the Differential (NSCLC, sample 629) was −0.764. The Differential (NSCLC, sample 677) was 0.171, the Differential (NSCLC, sample 737) was −0.250 and the Differential (NSCLC, sample 1012) was 0.270. For the same compound, the Differential (NSCLC, sample 1176) was −0.241, the Differential (NSCLC, sample 1422) was 0.374 and the Differential (NSCLC, sample 1647) was −0.988. The Differential (Ovarian, sample 899) was −0.764, the Differential (Ovarian, sample 1353) was −0.764 and the Differential (Pancreas, sample 546) was −0.177. The Differential (Pancreas, sample 736) was 0.134, the Differential (Pancreas, sample 1657) was −1.194 and the Differential (Pancreas, sample 1861) was 0.442. For the same compound, the Differential (Pancreas, sample 1869) was −0.800, the Differential (Pancreas, sample 1872) was 0.786 and the Differential (Pancreas, sample 1876) was 0.709. The Differential (Pancreas, sample 1881) was −0.128, the Differential (Pancreas, sample 1887) was −0.764 and the Differential (Pancreas, sample 1900) was −0.992. For the same compound, the Differential (Pancreas, sample 1912) was 1.187, the Differential (Pancreas, sample 1937) was 0.969 and the Differential (Prostate, sample 22RV1) was 0.506. It also gave a Differential (Prostate, sample DU145) of 0.236, a Differential (Prostate, sample MRIH1579) of −0.764 and a Differential (Prostate, sample PC3M) of 0.609. The Differential (SCLC, sample 538) was 0.706, the Differential (SCLC, sample 573) was 0.468 and the Differential (SCLC, sample 615) was 1.323. For the same compound, the Differential (SCLC, sample 650) was 0.661, the Differential (SCLC, sample H69) was 0.807 and the Differential (Sarcoma, sample 117) was 0.840. It also gave a Differential (Sarcoma, sample 417) of 1.032, a Differential (Sarcoma, sample 463) of −1.045 and a Differential (Sarcoma, sample 627) of −0.764. The Differential (Sarcoma, sample 1186) was 0.722, the Differential (Sarcoma, sample 1301) was 0.865 and the Differential (Sarcoma, sample 1410) was −0.115. For the same compound, the “sensitive samples / samples” value (bladder) was 4/6, the “sensitive samples / samples” value (breast) was 7/10 and the “sensitive samples / samples” value (hematological cancers (leukemia and lymphoma)) was 5/5. For the same compound, the “sensitive samples / samples” value (sarcomas) was 4/7, the “sensitive samples / samples” value (small cell lung cancer (SCLC)) was 5/5 and the “average log(GI50) across the entire panel” value (soft agar assay panel) was 0.236.
